According to patent publication US4046904A, “Novel penicillin, and its preparation and use” (Sumitomo Chemical Company, Limited, priority 1975, dated 1977):
≈ marks a conversion by molar mass, not a printed value.

What was measured:
[1] = test system: Pseudomonas; conditions: background statement; cited from earlier work
[2] = test system: Pseudomonas aeruginosa; assay: Intraperitoneal infection in mice, median protective dose (Table 2); format: in vivo; conditions: sc, subcutaneous, 1 and 4 hours after infection, sodium salt, read-out: PD50
Method: (§1) Note: Compound (I), Compound (A) and Compound (B) were subjected to the test in the form of the sodium salt. For each test, eight male ICR-SLC strain mice were used at each dose level. MIC was determined by the nutrient broth dilution method. In determination of PD50, subcutaneous treatment was carried out twice, i.e. 1 and 4 hours after infection.

[3] = test system: Klebsiella pneumoniae; assay: as above; format: in vivo; conditions: sc, subcutaneous, 1 and 4 hours after infection, sodium salt, read-out: PD50
Method: as §1

[4] = test system: Escherichia coli; assay: as above; format: in vivo; conditions: sc, E. coli strain NIHJ, male ICR-SLC mice, subcutaneous, 1 and 4 hours after infection, sodium salt, read-out: PD50
Method: as §1

[5] = test system: Pseudomonas aeruginosa; assay: MIC, nutrient broth dilution (Table 2); format: cell-based
Method: as §1

[6] = test system: Klebsiella pneumoniae; assay: MIC, nutrient broth dilution (Table 2); format: cell-based; conditions: Klebsiella pneumoniae strain No. 6, sodium salt
Method: as §1

[7] = test system: Escherichia coli; assay: MIC, nutrient broth dilution (Table 2); format: cell-based; conditions: Escherichia coli strain NIHJ, sodium salt
Method: as §1

[8] = test system: Proteus vulgaris; assay: Median MIC, clinical isolates, agar-plate dilution (Table 1); format: cell-based; conditions: 7 clinical isolates, sodium salt, read-out: Median minimum inhibitory concentration
Method: (§2) Note: Compound (I) and Compound (A) were subjected to the test in the form of the sodium salt. The minimum inhibitory concentration (MIC) was determined using the agar-plate dilution method recommended by Japan Society of Chemotherapy.

[9] = test system: Serratia; assay: as above; format: cell-based; conditions: 6 clinical isolates, sodium salt, read-out: Median minimum inhibitory concentration
Method: as §2

[10] = test system: Pseudomonas aeruginosa; assay: as above; format: cell-based; conditions: 49 clinical isolates, sodium salt, read-out: Median minimum inhibitory concentration
Method: as §2

[11] = test system: Staphylococcus aureus; assay: as above; format: cell-based; conditions: 37 clinical isolates, sodium salt, read-out: Median minimum inhibitory concentration
Method: as §2

[12] = test system: Escherichia; assay: as above; format: cell-based; conditions: read-out: Median minimum inhibitory concentration
Method: as §2

[13] = test system: Proteus morganii; assay: as above; format: cell-based; conditions: Morganella morganii, 14 clinical isolates, sodium salt, read-out: Median minimum inhibitory concentration
Method: as §2

[14] = test system: Klebsiella pneumoniae; assay: as above; format: cell-based; conditions: 26 clinical isolates, sodium salt, read-out: Median minimum inhibitory concentration
Method: as §2

[15] = test system: Enterobacter aerogenes; assay: as above; format: cell-based; conditions: Klebsiella aerogenes, 8 clinical isolates, sodium salt, read-out: Median minimum inhibitory concentration
Method: as §2

[16] = test system: Pseudomonas aeruginosa; assay: MIC, nutrient broth dilution (Table 5); format: cell-based; conditions: Pseudomonas aeruginosa strain TS, sodium salt
Method: (§3) The relative activities of Compound (I) and Compound (C) against various intraperitioneal infections in mice evaluated by the minimum inhibitory concentrations and the means median protective doses (subcutaneously administered) are shown in Table 5.
(§4) Note: Compound (I) and Compound (C) were subjected to the test in the form of the sodium salt. For each test, five male ICR-SLC strain mice were used at each dose level. MIC was determined by the nutrient broth dilution method. In determination of PD50, subsutaneous treatment was carried out three times, i.e. 1, 3 and 5 hours after infection.

[17] = test system: Streptococcus faecalis; assay: MIC, nutrient broth dilution (Table 5); format: cell-based; conditions: Enterococcus faecalis, Streptococcus faecalis strain F10, sodium salt
Method: as §3, §4

[18] = Acute toxicity in mice, intraperitoneal (Table 9); conditions: mouse, in vivo, ip
Text: The acute toxicity of Compound (I) and Compound (C) in ICR strain mice when administered by intraperitoneal route are shown in Table 9.
(§5) Note: Compound (I) and Compound (C) were subjected to the test in the form of the sodium salt.

[19] = test system: Pseudomonas aeruginosa; assay: Intraperitoneal infection in mice, median protective dose (Table 5); format: in vivo; conditions: sc, P. aeruginosa strain TS, male ICR-SLC mice, subcutaneous, 1, 3 and 5 hours after infection, sodium salt, read-out: PD50
Method: as §3, §4

[20] = test system: Staphylococcus aureus; assay: as above; format: in vivo; conditions: sc, S. aureus strain A24, male ICR-SLC mice, subcutaneous, 1, 3 and 5 hours after infection, sodium salt, read-out: PD50
Method: as §3, §4

[21] = test system: Streptococcus faecalis; assay: as above; format: in vivo; conditions: Enterococcus faecalis, sc; S. faecalis strain F10; male ICR-SLC mice; subcutaneous, 1, 3 and 5 hours after infection; sodium salt; read-out: PD50
Method: as §3, §4

[22] = test system: Klebsiella pneumoniae; assay: as above; format: in vivo; conditions: sc, K. pneumoniae strain No. 1, male ICR-SLC mice, subcutaneous, 1, 3 and 5 hours after infection, sodium salt, read-out: PD50
Method: as §3, §4

[23] = Protein-binding rate in human serum (Table 6); format: in vitro ADME; conditions: human, serum, sodium salt
Text: The following data are related to the pharmacokinetic profiles of Compound (I) compared with Compound (C).
as §5

[24] = test system: Proteus mirabilis; assay: MIC (Table 3); format: cell-based; conditions: Proteus mirabilis strain GN2425; sodium salt
Text: The minimum inhibitory concentrations obtained with Compound (I) and Compound (C) against the following organisms representing 6 genera are shown in Table 3.
as §5

[25] = test system: Staphylococcus aureus; assay: Median MIC, clinical isolates, agar-plate dilution (Table 4); format: cell-based; conditions: 37 strains, agar-plate dilution, sodium salt, read-out: Median minimum inhibitory concentration
Method: (§6) Note: Compound (I) and Compound (C) were subjected to the test in the form of the sodium salt. MIC was determined using the agar-plate dilution method.

[26] = test system: Streptococcus faecalis; assay: as above; format: cell-based; conditions: Enterococcus faecalis, 23 strains, agar-plate dilution, sodium salt, read-out: Median minimum inhibitory concentration
Method: as §6

[27] = Urinary excretion rate in rats after intramuscular administration (Table 8); format: in vivo, Wistar-HLA strain rats; conditions: rat, urine, im, 20 mg/kg, male rats, intramuscular 20 mg/kg, sodium salt
Method: The urinary excretion rates of Compound (I) and Compound (C) following an intramuscular administration of 20 mg/kg in male Wistar-HLA strain rats are shown in Table 8.
as §5

[28] = Serum level in mice after subcutaneous administration (Table 7); format: in vivo, ICR-SLC strain mice; conditions: mouse, sc, subcutaneous 50 mg/kg, sodium salt
Method: The peak serum concentrations of Compound (I) and Compound (C) in ICR strain mice following subcutaneous administration at 50 mg/kg are shown in Table 7.
Note: Compound (I) and Compound (C) were subjected to the test in the form of the sodium salt. For the test, three male ICR-SLC strain mice were used. The bioassay was carried out according to the disc method using Bacillus subtilis.

CC1(C)S[C@@H]2[C@H](NC(=O)[C@H](N)c3ccccc3)C(=O)N2[C@H]1C(=O)O [Ampicillin]
anti-Pseudomonas activity [1]: does not exert any appreciable anti-Pseudomonas activity

CC1(C)S[C@@H]2[C@H](NC(=O)C(C(=O)O)c3ccccc3)C(=O)N2[C@H]1C(=O)O (stereo partly shown) [Carbenicillin]
anti-Pseudomonas activity [1]: not sufficiently strong

CC1(C)S[C@@H]2[C@H](NC(=O)[C@H](NC(=O)c3cnccc3O)c3ccc(O)cc3)C(=O)N2[C@H]1C(=O)O [Compound (A), 6-[D-2-(4-hydroxypyridine-3-carbonamido)-2-(p-hydroxyphenyl)acetamido]penicillanic acid, reference compound]
ED50 ([2]; P. aeruginosa strain NC-5, male ICR-SLC mice): 60 mg/kg | ED50 ([2]; P. aeruginosa strain T, male ICR-SLC mice): 51 mg/kg | ED50 ([3]; K. pneumoniae strain No. 1, male ICR-SLC mice): 100 mg/kg | ED50 ([3]; K. pneumoniae strain No. 6, male ICR-SLC mice): 120 mg/kg | ED50 ([3]; K. pneumoniae strain No. 20, male ICR-SLC mice): > 150 mg/kg | ED50 [4]: 3 mg/kg | MIC ([5]; Pseudomonas aeruginosa strain NC-5, sodium salt): 6.25 µg/mL | MIC ([5]; Pseudomonas aeruginosa strain T, sodium salt): 12.5 µg/mL | MIC [6]: 100 µg/mL | MIC [7]: 12.5 µg/mL | MIC50 [8]: 115 µg/mL | MIC50 [9]: > 200 µg/mL | MIC50 [10]: 5 µg/mL | MIC50 [11]: 21 µg/mL | MIC50 [12]: 14 µg/mL (≈ 28.8 µM) | MIC50 [13]: 50 µg/mL | MIC50 [14]: 73 µg/mL | MIC50 [15]: 100 µg/mL

CC1(C)S[C@@H]2[C@H](NC(=O)[C@H](NC(=O)c3cnc4cccnc4c3O)c3ccc(O)cc3)C(=O)N2[C@H]1C(=O)O [Compound (C), 6-[D-2-(4-hydroxy-1,5-naphthyridine-3-carbonamido)-2-(p-hydroxyphenyl)acetamido]penicillanic acid, reference compound]
MIC [16]: 3.13 µg/mL | MIC [17]: 1.56 µg/mL | LD50 [18]: 3100 mg/kg | ED50 [19]: 15 mg/kg | ED50 [20]: 32 mg/kg | ED50 [21]: 6 mg/kg | ED50 [22]: 18 mg/kg | fraction unbound ([23]; Ultracentrifugation method): 0.08 | fraction unbound ([23]; Ultrafiltration method): 0.1 | MIC [24]: 1.56 µg/mL | MIC50 [25]: 60 µg/mL | MIC50 [26]: 3.8 µg/mL | dose excreted at 6 h ([27]; 0-6 hr.): 19.5% | dose excreted at 24 h ([27]; 0-24 hr.): 20% | dose excreted at 24 h ([27]; 6-24 hr.): 0.5% | concentration at 0.5 h ([28]; 1/2 hr.): 32000 ng/mL | concentration at 0.25 h ([28]; 1/4 hr.): 44000 ng/mL | concentration at 1 h ([28]; 1 hr.): 8000 ng/mL | concentration at 2 h ([28]; 2 hr.): 5000 ng/mL

CC1(C)S[C@@H]2[C@H](NC(=O)C(c3ccccc3)S(=O)(=O)O)C(=O)N2[C@H]1C(=O)O (stereo partly shown) [Sulfocillin]
anti-Pseudomonas activity [1]: not sufficiently strong
